What was measured:
Type in all cases: in vivo
Wild-type C57Bl/6J mice = experiment: High fat diet induced liver steatosis in mice, Oil Red O staining of liver; conditions: HFD 6 weeks; PRO20 27 ug/kg/d by subcutaneous osmotic pump for 4 weeks; HFD saline 17.57±3.23%, NFD 3.51±0.86%; N=4 mice/group
Procedure: Non-alcoholic fatty liver steatohepatitis (NASH) represents a diverse array of liver damage linked to obesity, metabolic syndrome, and diabetes. The mechanisms and the treatment for NASH remains lacking. The inventors hypothesized that PRR antagonism using PRO20 prevents NASH development. FIG. 6 illustrates subcutaneous administration of PRR antagonist, PRO20, attenuates high fat diet induced-liver steatosis in mice. Wild-type C57Bl/6J mice were treated with either with either HFD (60% calories from fat) or normal fat chow (NFD, 10% calories from fat) with matching calories for 6 weeks. Two week following diet modification, HFD mice were implanted with subcutaneous osmotic pump containing either PRO20 (27 ug/kg/d) or saline for 4 weeks. Liver tissues were processed for Oil Red 0 staining for lipid accumulation and quantified using Image)/FIJI software. Data were presented % of ORO staining to the total area. N=4 mice/group. *p<0.01 vs. NFD; #P<0.05 vs. HFD Saline; One-way ANOVA. 6 weeks of HFD (17.57±3.23%) induced a significant elevation on liver ORO staining compared with the liver from mice fed with NFD (3.51±0.86%, p=0.005). […] FIG. 7 illustrates subcutaneous administration of PRR antagonist, PRO20, attenuates peroxisome proliferator-activated receptor gamma (PPARγ).

[1] = tested on: peroxisome proliferator-activated receptor gamma (PPARγ); experiment: Liver PPARγ in high fat diet mice; conditions: subcutaneous administration, high fat diet mice (FIG. 7)
Description: FIG. 7 illustrates subcutaneous administration of PRR antagonist, PRO20, attenuates peroxisome proliferator-activated receptor gamma (PPARγ). […] PRO20 treatment prevents the upregulating of PPARγ in the liver supporting a mechanism for the beneficial role of PRO20 in preventing fatty liver development.
Non-alcoholic fatty liver steatohepatitis (NASH) represents a diverse array of liver damage linked to obesity, metabolic syndrome, and diabetes. The mechanisms and the treatment for NASH remains lacking. The inventors hypothesized that PRR antagonism using PRO20 prevents NASH development. FIG. 6 illustrates subcutaneous administration of PRR antagonist, PRO20, attenuates high fat diet induced-liver steatosis in mice. Wild-type C57Bl/6J mice were treated with either with either HFD (60% calories from fat) or normal fat chow (NFD, 10% calories from fat) with matching calories for 6 weeks. Two week following diet modification, HFD mice were implanted with subcutaneous osmotic pump containing either PRO20 (27 ug/kg/d) or saline for 4 weeks. Liver tissues were processed for Oil Red 0 staining for lipid accumulation and quantified using Image)/FIJI software. Data were presented % of ORO staining to the total area. N=4 mice/group. *p<0.01 vs. NFD; #P<0.05 vs. HFD Saline; One-way ANOVA. […]

[2] = tested on: liver renin-angiotensin system; experiment: Liver renin-angiotensin system activation induced by high fat diet; conditions: subcutaneous administration, high fat diet mice (FIG. 8)

“LPTDTTTFKRIFLKRMPSI (Synthetic (pro)renin receptor agonist peptide) [PRO20]” was tested, and the “% of ORO staining to the total area (liver lipid accumulation)” value (Wild-type C57Bl/6J mice) was 7.34±1.96%, the “Effect on liver PPARγ” value [1] was “attenuates” and the “Effect on liver renin-angiotensin system activation induced by high fat diet” value [2] was “prevents activation”.

From patent publication US20210315971A1, “COMPOSITIONS ACTING AS PRO(RENIN) RECEPTOR ANTAGONISTS FOR THE TREATMENT OF NON-ALCOHOLIC FATTY LIVER DISEASE” (Board of Regents of the Nevada System of Higher Education …, priority 2018, published 2021)
